As usually defined, the NOAEL is the highest dose or exposure tested at which no adverse effect was seen. In general, LOAEL refers to the lowest dose or exposure tested at which an adverse effect was seen.

This note sets out measurements from EPA's ToxValDB 9.5.

Data set [1] has as its system Rattus norvegicus.
Data set [2] relates to Rattus norvegicus. The settings on record: oral.
Data set [3] relates to Rattus norvegicus. The source holds these as a separate data set.
In data set [4] the test system is Rattus norvegicus. The settings on record: Hershberger; duration: 10 days; oral; gavage; Sprague-Dawley; active + Antiandrogenic + anti-androgenic.
For data set [5], the system named is Rattus norvegicus. Conditions: oral, gavage, Sprague-Dawley.
Where [6] appears, read: short-term, duration: 4 weeks, oral, gavage, F, Sprague-Dawley.
Where [7] appears, read: short-term, duration: 4 weeks, oral, gavage, M, Sprague-Dawley.
The mark [8] stands for this setting: reproduction developmental, duration: 7 days, F, generation: P0, P0: Developmental: Whole Body: Litter Size + P0: Developmental: Whole Body: Male Pups per Pups Sexed.
The mark [9] stands for this setting: short-term, duration: 21 days, M, Endocrine: Multi-Organ: Estradiol, Serum + Endocrine: Multi-Organ: Follicular Stimulating Hormone (FSH), Serum + Endocrine: Multi-Organ: ….
Where [10] appears, read: short-term, duration: 21 days, M, Endocrine: Multi-Organ: Estradiol, Serum + Endocrine: Multi-Organ: Follicular Stimulating Hormone (FSH), Serum + Metabolic: Multi-Organ: ….
Setting [11] is: short-term, duration: 21 days, M, Endocrine: Multi-Organ: Testosterone (T), Serum + Reproductive: Epididymis: Epididymis Weight, Absolute + Reproductive: Testis: Testis ….
The mark [12] stands for this setting: short-term, duration: 28 days, gavage, M, Sprague-Dawley, Clinical Observation: Salivation Spontaneous locomotion decrease, Respiratory rate decrease.

On to `C1CO1` [Ethylene oxide], for which the no-observed-adverse-effect level (NOAEL) in the data set with Rattus norvegicus [1] (developmental, duration: 364 days, inhalation, whole body, M/F, CD, developmental) amounted to 18 mg/m3.
With `C=C(C)C` [Isobutene], the no observed adverse effect level (NOAEL) amounted to 149 mg/kg-day with Rattus norvegicus [2] (short-term, duration: 28 days, gavage, Sprague-Dawley); 18400 mg/m3 in the data set on Rattus norvegicus [3] (reproduction developmental, duration: 17 days, inhalation, F, Wistar); 14.9 mg/kg-day with Rattus norvegicus [3] (setting [6]); 14.9 mg/kg-day in the data set on Rattus norvegicus [3] (setting [7]); 18400 mg/m3 in the data set on Rattus norvegicus [3] (subchronic, duration: 13 weeks, inhalation, F, Sprague-Dawley); 18400 mg/m3 with Rattus norvegicus [3] (subchronic, duration: 13 weeks, inhalation, M, Sprague-Dawley). Further, the LOAEL in the data set with Rattus norvegicus [3] (setting [6]) and in the data set with Rattus norvegicus [3] (setting [7]) was 149 mg/kg-day each time.
`CCCCC(CC)COC(=O)c1ccccc1C(=O)O` (centres undefined) [MEHP]: in the data set with Rattus norvegicus [4], the LOEL worked out at 50 mg/kg-day and the NOEL is 10 mg/kg-day.
Molecule `NS(=O)(=O)C(F)(F)C(F)(F)C(F)(F)C(F)(F)C(F)(F)C(F)(F)C(F)(F)C(F)(F)F` [Perfluorooctanesulfonamide] returned an NOAEL in the data set with Rattus norvegicus [1] (acute, duration: 1 days, oral, gavage, M, Sprague-Dawley, Hepatic: No alterations in liver weight) of 5 mg/kg-day.
Turning to `O=C(O)C(F)(F)C(F)(F)C(F)(F)C(F)(F)C(F)(F)C(F)(F)C(F)(F)C(F)(F)C(F)(F)C(F)(F)C(F)(F)C(F)(F)F` [Perfluorotridecanoic acid], the NOAEL came out at 5 mg/kg-day with Rattus norvegicus [5] (developmental, duration: 7 days, M, generation: F1, F1: Developmental: Testis: Fetal Leydig cell number + F1: Developmental: Trunk: Anogenital Distance + F1: Developmental: Whole Body: Pup …); 5 mg/kg-day with Rattus norvegicus [5] (setting [8]); 10 mg/kg-day in the data set with Rattus norvegicus [5] (reproduction developmental, duration: 7 days, F, generation: P0, P0: Whole Body: Whole Body: Clinical Observations, Unspecified + P0: Whole Body: Whole Body: Maternal Body Weight); 1 mg/kg-day in the data set on Rattus norvegicus [5] (setting [9]); 5 mg/kg-day with Rattus norvegicus [5] (setting [10]); 1 mg/kg-day with Rattus norvegicus [5] (setting [11]). Besides, the NOAEL with Rattus norvegicus [5] (short-term, duration: 21 days, M, Whole Body: Whole Body: Body Weight Change + Whole Body: Whole Body: Body Weight, Absolute + Whole Body: Whole Body: Clinical Observation …) is 10 mg/kg-day. Further, the LOAEL came to 10 mg/kg-day in the data set on Rattus norvegicus [5] (setting [8]); 1 mg/kg-day in the data set on Rattus norvegicus [5] (reproduction developmental, duration: 7 days, F, generation: P0, P0: Developmental: Whole Body: Litter Size + P0: Developmental: Whole Body: Male Pups per Pups Sexed + P0: Reproductive: Whole Body: Birth …); 1 mg/kg-day in the data set with Rattus norvegicus [5] (reproduction developmental, duration: 7 days, F, generation: P0, P0: Reproductive: Whole Body: Birth rate); 1 mg/kg-day in the data set on Rattus norvegicus [5] (reproduction developmental, duration: 7 days, M, generation: F1, F1: Endocrine: Multi-Organ: Testosterone (T), Serum); 5 mg/kg-day in the data set with Rattus norvegicus [5] (setting [9]); 10 mg/kg-day with Rattus norvegicus [5] (setting [10]). Also, in the data set on Rattus norvegicus [5] (setting [11]), the LOAEL was 5 mg/kg-day.
On to `[Sn]` [Tin], for which the NOAEL with Rattus norvegicus [1] (subchronic, duration: 13 weeks, oral, diet, M/F, Wistar, hematological) was 32 mg/kg-day.
As for `CCCCCCCC[Si](OCC)(OCC)OCC` [Triethoxyoctylsilane], the NOAEL in the data set with Rattus norvegicus [2] (short-term, duration: 28 days, diet, Fischer 344) was determined as 10000 ppm; with Rattus norvegicus [2] (short-term, duration: 29 days, gavage, M/F, Sprague-Dawley, Clinical Observation: Soiling of the head (nose, chin, muzzle) + Body Weight Changes: Mean body weight decrease, Weight gain decrease + Food…), 300 mg/kg-day.
Turning to `CO[Si](CCCOCC1CO1)(OC)OC` (centres undefined) [Trimethoxy[3-(oxiran-2-ylmethoxy)propyl]silane], the NOAEL in the data set on Rattus norvegicus [2] (short-term, duration: 28 days, gavage, Sprague-Dawley, Deaths: None (there were dead animals due to intubation error)) was > 1000 mg/kg-day.
In the data set with Rattus norvegicus [2] (setting [12]), `O=P(OCCCl)(OCCCl)OCCCl` [Tris(2-chloroethyl) phosphate] had an NOAEL of 400 mg/kg-day and an NOEL of 80 mg/kg-day.
In the case of `S=c1[nH]c(=S)[nH]c(=S)[nH]1` [Trithiocyanuric acid], in the data set on Rattus norvegicus [2] (subchronic, gavage, M, Sprague-Dawley, Deaths + Clinical Observation: Black area of the pinna Nodule of the tail Dark purple distally of the tail Reddish urine + Body Weight …), the NOEL was < 62.5 mg/kg-day.
For the molecule `C=CN1CCCC1=O` [Vinylpyrrolidone], the NOAEL in the data set with Rattus norvegicus [2] (subchronic, duration: 90 days, drinking water, M/F, Wistar, Water Consumption: decrease + Blood Chemistry: TP decrease, Glob decrease, Alb decrease + Absolute Organ Weight: Kidney increase) came to 4.56 mg/kg-day; in the data set with Rattus norvegicus [2] (subchronic, duration: 90 days, gavage, M/F, Wistar, Food Consumption: decrease + Water Consumption: increase + Hematology: PLT increase + Absolute Organ Weight: Liver increase + Histopathology…) it was 60 mg/kg-day.
In the data set on Rattus norvegicus [2] (subchronic, gavage, Sprague-Dawley), `[O-][n+]1ccccc1[S-].[O-][n+]1ccccc1[S-].[Zn+2]` [Zinc pyrithione] came in with an NOEL of 1 mg/kg-day.
For the molecule `CC1CC(C)(C)CC(c2ccc(O)cc2)(c2ccc(O)cc2)C1` (centres undefined) [bisphenol TMC], the NOEL in the data set with Rattus norvegicus [2] (short-term, duration: 28 days, gavage, M/F, Body Weight Changes: Weight gain decrease + Food Consumption: decrease + Water Consumption: increase + Urinalysis: Protein increase + …) was < 100 mg/kg-day.
As for `O=C1CCCO1` [gamma-Butyrolactone], the NOEL in the data set with Rattus norvegicus [2] (subchronic, duration: 13 weeks, gavage, M/F, Fischer 344, Clinical Observation: Slight inactivity Recumbent + Body Weight Changes: decrease + Absolute Organ Weight: Thymus decrease + Relative Organ …) turned out to be 112 mg/kg-day.
Turning to `Cc1ccc(S(=O)(=O)Cl)cc1` [p-Toluenesulfonyl chloride], the NOAEL with Rattus norvegicus [2] (subchronic, duration: 51 days, gavage, M, Sprague-Dawley, Clinical Observation: Soft stool Staining around anorectal region Staining around mouth Staining around nose(blood like) Loss of hair around…) is < 150 mg/kg-day.
